Read-outs that look alike come from different tables or passages of the source.
Legend:
[1] = target: KvLQT1/minK (Homo sapiens, UniProt P51787); assay: Ion Channel KvLQT1/minK Blocker; format: cell-based; conditions: for Emax: read-out: Max response
[2] = target: T1, CCKAR (Homo sapiens, UniProt P32238); assay: Calcium Flux CCKAR Agonist; format: cell-based; conditions: for Emax: read-out: Max response; for EC50: read-out: RC50, result type EC50
T1 sequence (P32238 1-428): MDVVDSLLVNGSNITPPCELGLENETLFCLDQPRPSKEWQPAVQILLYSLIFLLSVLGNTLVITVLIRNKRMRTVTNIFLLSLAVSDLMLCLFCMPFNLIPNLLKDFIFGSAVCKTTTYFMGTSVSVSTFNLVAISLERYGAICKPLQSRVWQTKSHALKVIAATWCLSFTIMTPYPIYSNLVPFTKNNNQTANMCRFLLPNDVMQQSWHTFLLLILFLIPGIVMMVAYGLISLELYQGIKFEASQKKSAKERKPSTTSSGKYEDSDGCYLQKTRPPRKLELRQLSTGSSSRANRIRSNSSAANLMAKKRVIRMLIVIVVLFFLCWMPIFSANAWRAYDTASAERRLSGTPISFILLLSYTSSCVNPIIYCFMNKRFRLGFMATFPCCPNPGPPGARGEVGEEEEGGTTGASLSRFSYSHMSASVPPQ
Method: (§1) (≤0.2% DMSO concentration). Assays were performed in 1× dye loading buffer consisting of 1× Dye (DiscoverX, Calcium No Wash^PLUS kit, Catalog No. 90-0091), 1× Additive A and 2.5 mM Probenecid in HBSS/20 mM HEPES. Probenecid was prepared fresh. Prior to testing, media was aspirated from cells and replaced with 25 μL dye loading buffer. Cells were incubated for 45 min at 37° C. and then 20 min at RT. For agonist determination, 25 μL of 2× compound in HBSS/20 mM HEPES was added using a FLIPR Tetra (MDS). […] 25 μL of 2× sample was added and cells were incubated for 30 min at RT in the dark to equilibrate plate temperature. After incubation, antagonist determination was initiated by addition of 25 μL of 1× compound with 3×EC80 agonist using FLIPR. For both agonist and antagonist formats, activity was measure on a FLIPR Tetra (MDS). Calcium mobilization was monitored for 2 min with a 5 sec baseline read.
(§2) FLIPR read—Area under the curve, was calculated for the entire 2 min read.

[3] = target: T2, CHRM1 (Homo sapiens, UniProt P11229); assay: Calcium Flux CHRM1 Antagonist; conditions: for Emax: read-out: Max response
T2 sequence (P11229 1-460): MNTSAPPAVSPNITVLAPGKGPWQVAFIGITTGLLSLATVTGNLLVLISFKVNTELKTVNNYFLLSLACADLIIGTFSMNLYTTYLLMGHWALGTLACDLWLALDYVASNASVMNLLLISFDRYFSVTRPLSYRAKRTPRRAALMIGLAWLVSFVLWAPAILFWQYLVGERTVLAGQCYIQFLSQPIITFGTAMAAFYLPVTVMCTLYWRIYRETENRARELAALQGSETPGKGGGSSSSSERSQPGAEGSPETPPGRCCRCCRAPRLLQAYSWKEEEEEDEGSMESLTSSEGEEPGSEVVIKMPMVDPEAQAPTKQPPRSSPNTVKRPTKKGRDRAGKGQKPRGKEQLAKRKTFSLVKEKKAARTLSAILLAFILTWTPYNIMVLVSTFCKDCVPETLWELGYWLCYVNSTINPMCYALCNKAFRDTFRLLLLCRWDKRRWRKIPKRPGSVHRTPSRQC
Method: (§4) In vitro pharmacological profiling of compounds was done against 78 functional assays for 47 common off-targets (30) by Eurofins DiscoverX Corporation (Fremont, CA, USA) using their SAFETYscan E/IC50 ELECT service (Cat Ref 87-1003DR, Safety47 Panel Dose Response). […] Compounds were tested in a range of 10 concentrations, following a 3-fold serial dilution, starting from 10 μM. The assays were performed utilizing the PathHunter enzyme fragment complementation (EFC) technology, FLIPR®-based cellular screening assays, and KINOMEscan kinase binding assays.
Prior to testing, cells (10,000 cells/well) were expanded from freezer stocks and seeded into a total volume of 50 μL into black walled, clear-bottom, Poly-D-lysine coated 384-well microplates and incubated at 37° C. […] Assays were performed in 1× dye loading buffer consisting of 1× Dye (DiscoverX, Calcium No Wash^PLUS kit, Catalog No. 90-0091), 1× Additive A and 2.5 mM Probenecid in HBSS/20 mM HEPES. Probenecid was prepared fresh. Prior to testing, media was aspirated from cells and replaced with 25 μL dye loading buffer. Cells were incubated for 45 min at 37° C. and then 20 min at RT. For agonist determination, 25 μL of 2× compound in HBSS/20 mM HEPES was added using a FLIPR Tetra (MDS). For antagonist determination, cells were pre-incubated with sample followed by agonist challenge at the EC80 concentration. 25 μL of 2× sample was added and cells were incubated for 30 min at RT in the dark to equilibrate plate temperature. After incubation, antagonist determination was initiated by addition of 25 μL of 1× compound with 3×EC80 agonist using FLIPR. For both agonist and antagonist formats, activity was measure on a FLIPR Tetra (MDS). Calcium mobilization was monitored for 2 min with a 5 sec baseline read.
FLIPR read—Area under the curve, was calculated for the entire 2 min read. Compound activity was analysed using CBIS data analysis suite (ChemInnovation, CA).

[4] = tested on: EKP-induced epileptiform discharges in zebrafish larvae; assay: Zebrafish EKP seizure model, electrophysiology (non-invasive LFP recordings, PSD analysis); format: in vivo, zebrafish (Danio rerio); conditions: 7 dpf larvae; for effect on EKP-induced elevated PSD (in words): 22 h; for efficacy against EKP-induced epileptiform discharges 2 μM / efficacy against EKP-induced epileptiform discharges 10 μM: 22 h incubation, mean, normalized PSD 20-90 Hz
Method: Non-invasive LFP recordings were measured from the midbrain (optic tectum) of 7 dpf zebrafish larvae pre-incubated with VHC only, EKP only, or compound and EKP. […] These steps occurred at 28° C., while further manipulation and electrophysiological recordings occurred at room temperature (±21° C.) and were performed as described before (16, 27). Each recording lasted 600 seconds.
A power spectral density (PSD) analysis of the recordings was performed using MatLab R2019 software (MATrix LABoratory, USA) as described in (26). The PSD estimate of each LFP recording was summed over each 10 Hz frequency band, ranging from 0 to 160 Hz. Next, the PSD estimates were normalized against the VHC control. Data are expressed as mean±SEM PSD per larva and per condition over the 20-90 Hz region. Outliers were identified via the ROUT test (Q=1%).
PSD analysis assumes that the epileptiform activity manifests as a high-power oscillation at certain frequencies (26). Thus, if epileptic activity occurs often during the recording an elevated PSD estimate should be found at the corresponding frequency band(s) (26).

[5] = target: CNR2 (Homo sapiens, UniProt P34972); assay: cAMP CNR2 Agonist; conditions: for Emax: read-out: Max response
Method: as §4
(§5) cAMP Hunter cell lines were expanded from freezer stocks. Prior to testing, cells were seeded in a total volume of 20 μL into white walled 384-well microplates and incubated at 37° C. cAMP modulation was determined using the DiscoverX HitHunter cAMP XS+ assay. For Gs agonist determination, cells were incubated with sample to induce response. For Gi agonist determination, cells were incubated with sample in the presence of EC80 forskolin to induce response. For both conditions, media was aspirated from cells and replaced with 15 μL 2:1 HBSS/10 mM HEPES:cAMP XS+ Ab reagent. Intermediate dilution of sample stocks was performed to generate 4× sample in assay buffer (containing 4×EC80 forskolin in the case of antagonist determination). 5 μL of 4× sample was added to cells and incubated at 37° C. or room temperature (RT) for 30 or 60 min. Final assay vehicle concentration was 1%. For antagonist determination, cells were pre-incubated with sample followed by agonist challenge at the EC80 concentration. Media was aspirated from cells and replaced with 10 μL 1:1 HBSS/HEPES:cAMP XS+ Ab reagent. 5 μL of 4× compound was added to the cells and incubated at 37° C. or RT for 30 min. 5 μL of 4×EC80 agonist was added to the cells and incubated at 37° C. or RT for 30 or 60 min. For Gi coupled GPCRs, EC80 forskolin was included. […] Microplates were read following signal generation with a PerkinElmer Envision™ instrument for chemiluminescent signal detection. Compound activity was analyzed using CBIS data analysis suite (ChemInnovation, CA).

[6] = target: HRH2 (Homo sapiens, UniProt P25021); assay: cAMP HRH2 Agonist; format: cell-based; conditions: for Emax: read-out: Max response
Method: (§3) cAMP Hunter cell lines were expanded from freezer stocks. […] For Gi agonist determination, cells were incubated with sample in the presence of EC80 forskolin to induce response. For both conditions, media was aspirated from cells and replaced with 15 μL 2:1 HBSS/10 mM HEPES:cAMP XS+ Ab reagent. […] 5 μL of 4× sample was added to cells and incubated at 37° C. or room temperature (RT) for 30 or 60 min. Final assay vehicle concentration was 1%. […] Media was aspirated from cells and replaced with 10 μL 1:1 HBSS/HEPES:cAMP XS+ Ab reagent. […] For Gi coupled GPCRs, EC80 forskolin was included. […] Compound activity was analyzed using CBIS data analysis suite (ChemInnovation, CA).

[7] = target: HTR1B (Homo sapiens, UniProt P28222); assay: cAMP HTR1B Antagonist; conditions: for Emax: read-out: Max response
Method: (§6) In vitro pharmacological profiling of compounds was done against 78 functional assays for 47 common off-targets (30) by Eurofins DiscoverX Corporation (Fremont, CA, USA) using their SAFETYscan E/IC50 ELECT service (Cat Ref 87-1003DR, Safety47 Panel Dose Response). […] Compounds were tested in a range of 10 concentrations, following a 3-fold serial dilution, starting from 10 μM.
as §5

[8] = target: OPRK1 (Homo sapiens, UniProt P41145); assay: cAMP OPRK1 Agonist; conditions: for Emax: read-out: Max response
Method: as §6, §5

[9] = target: AVPR1A (Homo sapiens, UniProt P37288); assay: Calcium Flux AVPR1A Agonist; format: cell-based; conditions: for Emax: read-out: Max response; for EC50: read-out: RC50, result type EC50
Method: as §1, §2

[10] = target: ADRB1 (Homo sapiens, UniProt P08588); assay: cAMP ADRB1 Agonist; format: cell-based; conditions: for Emax: read-out: Max response
Method: as §3

CNR2, sequence (P34972 whole entry): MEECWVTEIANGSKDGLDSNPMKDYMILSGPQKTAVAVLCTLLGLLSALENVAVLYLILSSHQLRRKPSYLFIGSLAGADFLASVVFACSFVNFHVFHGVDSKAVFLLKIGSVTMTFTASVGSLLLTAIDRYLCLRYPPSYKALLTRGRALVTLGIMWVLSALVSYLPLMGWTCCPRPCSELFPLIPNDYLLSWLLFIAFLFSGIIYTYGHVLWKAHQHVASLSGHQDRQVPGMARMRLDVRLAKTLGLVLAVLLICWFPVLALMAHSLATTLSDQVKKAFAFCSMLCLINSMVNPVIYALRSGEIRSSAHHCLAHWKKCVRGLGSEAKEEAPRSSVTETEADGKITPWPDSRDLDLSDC
HRH2, sequence (P25021 whole entry): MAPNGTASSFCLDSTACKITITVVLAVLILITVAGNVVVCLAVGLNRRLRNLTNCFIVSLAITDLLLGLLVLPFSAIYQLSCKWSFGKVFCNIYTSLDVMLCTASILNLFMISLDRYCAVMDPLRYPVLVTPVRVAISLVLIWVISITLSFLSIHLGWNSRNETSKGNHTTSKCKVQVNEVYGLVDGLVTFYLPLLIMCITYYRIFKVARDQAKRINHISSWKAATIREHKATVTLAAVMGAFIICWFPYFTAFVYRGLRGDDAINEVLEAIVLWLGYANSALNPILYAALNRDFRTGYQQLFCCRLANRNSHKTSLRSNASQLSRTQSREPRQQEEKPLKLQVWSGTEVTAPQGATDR
HTR1B, sequence (P28222 whole entry): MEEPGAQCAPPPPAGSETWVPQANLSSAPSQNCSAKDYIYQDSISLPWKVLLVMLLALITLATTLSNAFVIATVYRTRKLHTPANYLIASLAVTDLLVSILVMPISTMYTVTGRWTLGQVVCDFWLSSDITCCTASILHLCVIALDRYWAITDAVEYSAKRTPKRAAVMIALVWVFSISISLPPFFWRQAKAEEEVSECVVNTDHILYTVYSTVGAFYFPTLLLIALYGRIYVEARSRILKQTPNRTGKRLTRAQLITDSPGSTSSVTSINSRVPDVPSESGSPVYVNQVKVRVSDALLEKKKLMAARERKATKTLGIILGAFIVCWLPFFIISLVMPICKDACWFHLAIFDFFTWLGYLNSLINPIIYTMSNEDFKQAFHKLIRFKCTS
OPRK1, sequence (P41145 whole entry): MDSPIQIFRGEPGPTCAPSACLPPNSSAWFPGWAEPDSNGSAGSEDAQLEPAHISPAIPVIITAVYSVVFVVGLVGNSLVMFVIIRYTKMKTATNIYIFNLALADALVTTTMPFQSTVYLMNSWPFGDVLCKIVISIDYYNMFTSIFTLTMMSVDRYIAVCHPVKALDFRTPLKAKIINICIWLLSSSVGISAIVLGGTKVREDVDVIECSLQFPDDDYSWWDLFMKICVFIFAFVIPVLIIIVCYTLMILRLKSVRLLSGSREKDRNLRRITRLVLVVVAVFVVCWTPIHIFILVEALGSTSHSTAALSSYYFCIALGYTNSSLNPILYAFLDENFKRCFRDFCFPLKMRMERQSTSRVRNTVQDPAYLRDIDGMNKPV
ADRB1, sequence (P08588 whole entry): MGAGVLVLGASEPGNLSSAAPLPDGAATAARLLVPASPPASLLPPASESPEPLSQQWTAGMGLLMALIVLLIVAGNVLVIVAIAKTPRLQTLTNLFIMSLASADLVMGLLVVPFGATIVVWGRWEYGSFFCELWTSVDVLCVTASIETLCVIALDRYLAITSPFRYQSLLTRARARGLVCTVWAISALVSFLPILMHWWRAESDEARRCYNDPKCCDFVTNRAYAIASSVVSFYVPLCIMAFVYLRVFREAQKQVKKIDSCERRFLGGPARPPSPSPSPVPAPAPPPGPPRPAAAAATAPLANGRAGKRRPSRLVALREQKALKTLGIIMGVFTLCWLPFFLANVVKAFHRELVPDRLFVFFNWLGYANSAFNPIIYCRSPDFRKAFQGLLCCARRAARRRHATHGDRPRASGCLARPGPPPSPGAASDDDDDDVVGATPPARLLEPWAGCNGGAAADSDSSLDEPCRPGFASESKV
AVPR1A, sequence (P37288 whole entry): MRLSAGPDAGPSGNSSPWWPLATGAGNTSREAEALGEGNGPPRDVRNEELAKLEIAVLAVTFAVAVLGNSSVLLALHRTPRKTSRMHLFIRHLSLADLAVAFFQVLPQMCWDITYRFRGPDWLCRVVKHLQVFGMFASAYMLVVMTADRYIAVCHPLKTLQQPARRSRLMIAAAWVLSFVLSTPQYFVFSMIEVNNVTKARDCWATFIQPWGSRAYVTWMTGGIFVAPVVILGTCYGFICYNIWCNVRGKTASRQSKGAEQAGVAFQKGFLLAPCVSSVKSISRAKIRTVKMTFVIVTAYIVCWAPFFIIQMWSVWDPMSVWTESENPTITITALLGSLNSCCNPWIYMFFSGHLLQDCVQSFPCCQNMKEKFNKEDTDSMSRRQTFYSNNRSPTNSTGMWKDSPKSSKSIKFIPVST

Row | Structure (SMILES) | EC50 ([2]; Calcium Flux CCKAR Agonist) [µM] | IC50 [3] [µM] | Emax [3] [%] | effect on EKP-induced elevated PSD (in words) ([4]; 2 μM) | efficacy against EKP-induced epileptiform discharges 2 μM ([4]; 2 μM) [%] | effect on EKP-induced elevated PSD (in words) ([4]; 10 μM) | efficacy against EKP-induced epileptiform discharges 10 μM ([4]; 10 μM) [%] | EC50 [5] [µM] | Emax [5] [%] | IC50 [7] [µM] | Emax [7] [%] | EC50 [8] [µM] | Emax [8] [%] | EC50 ([9]; Calcium Flux AVPR1A Agonist) [µM] | further results
1 | Clc1cccc(C#Cc2n[nH]c3ncccc23)c1 [Compound 10.1, 3-((3-chlorophenyl)ethynyl)-1H-pyrazolo[3,4-b]pyridine] | > 10 | > 10 | 5.5 | did not | −30 | significant decrease | 77 | > 10 | 49.3 | > 10 | 0 | > 10 | 5.4 | > 10 | Emax ([1]; Ion Channel KvLQT1/minK Blocker): 0%; IC50 ([1]; Ion Channel KvLQT1/minK Blocker, read-out: RC50, result type IC50): > 10 µM; Emax ([2]; Calcium Flux CCKAR Agonist): 0.3%; Emax ([6]; cAMP HRH2 Agonist): 0.4%; EC50 ([6]; cAMP HRH2 Agonist, read-out: RC50, result type EC50): > 10 µM; Emax ([9]; Calcium Flux AVPR1A Agonist): 7.9%; Emax ([10]; cAMP ADRB1 Agonist): 0%; EC50 ([10]; cAMP ADRB1 Agonist, read-out: RC50, result type EC50): > 10 µM
2 | CC(C)(C)c1ccc(C#CC(O)c2ccccc2)cc1 (racemic) [Compound 3.3, rac-3-(4-(tert-butyl)phenyl)-1-phenylprop-2-yn-1-ol] | > 10 | > 10 | 0 | remained effective | 54 | significant decrease | 82 | > 10 | 38.1 | 6.4 | 66.2 | > 10 | 0 | > 10 | IC50 [1]: > 10 µM; Emax [1]: 47.5%; Emax [2]: 0.2%; EC50 [6]: > 10 µM; Emax [6]: 2.2%; Emax [9]: 8.7%; EC50 [10]: > 10 µM; Emax [10]: 0.6%
